From publication PMC8402075, “Synthesis and Antiplasmodial Activity of Bisindolylcyclobutenediones” (Molecules, 2021)
Like-named read-outs stand apart in the source and are kept apart here.

Legend:
[1] = test system: P. falciparum (NF54-luc strain) erythrocytic stages; experiment: Luciferase-based viability screening for antiplasmodial activity; type: cell-based, Plasmodium falciparum; settings: for inhibition at 3 µM: read-out: Inhibition at 3 µM [%]
Description: All synthesized new bisindolylcyclobutenediones 2a–2ar and the related bisindolylmaleimide 8 [37] were screened for inhibition of erythrocytic stages of Plasmodium falciparum employing a bioluminescence-based viability assay on transgenic parasites that constitutively express luciferase (PfNF54-luc). Initially, the compounds were evaluated in single-dose test runs (3 µM). If >20% viability inhibition was observed, dose-response curves were generated and IC50 values were calculated (Table 1). […] The bisindolylmaleimide 8 [37] inhibited the parasites in a single-digit micromolar concentration, similar to many of the bisindolylcyclobutenediones in the study. Because the bisindolylcyclobutenediones 2 display a higher degree of structural novelty, only this compound class was further pursued for its antiplasmodial activity. […] These structural features were considered unfavorable for orientations as illustrated in Figure 2 with 2a and Pfmap-2, PfPK5, PfCDPK2, Pflammer, and PfPK7, respectively. However, a structure generated for 2a in PfGSK-3 in which the indole units are oriented perpendicular to each other (Figure 2a) was considered compatible with the indicated substitution pattern. Consequently, the potent antiplasmodial derivatives 2k, 2ad, and 2ae were tested in a kinase Glo assay for inhibition of recombinant PfGSK-3. […] For the compounds with particularly potent antiplasmodial activity, cytotoxicity was also determined using the human cell line THP-1 to assess selectivity with respect to parasite cells (Table 2).
Screening for the antiplasmodial activity of test compounds was performed by luciferase-based viability assays as reported previously. In brief, asexual erythrocytic stages of transgenic NF54-luc P. falciparum were cultured as described elsewhere. Parasite cultures with parasitaemia of 0.5–1% were incubated in the presence of 3 µM test compounds for 48 h. After the subsequent addition of Bright-Glo substrate solution (Promega, Madison, WI), the resulting luminescence was measured. Untreated cultures (0.01% DMSO) were used as negative controls. Experiments were performed in triplicate and were repeated as a whole at least twice. Blasticidin (Sigma-Aldrich, St. Louis, MO, USA) was included as a positive control.

human THP-1 cell line = experiment: Cytotoxicity assay on human THP-1 cell line (Alamar Blue); type: cell-based; settings: for Selectivity Index (SI) = IC50, THP-1/IC50, Pf: THP-1 versus P. falciparum NF54-luc; for IC50: human THP-1 cell line, 48 h, Alamar Blue
Description: The cytotoxicity of selected antiplasmodial bisindolylcyclobutenediones was determined against THP-1 cells following a protocol described previously. In brief, THP-1 cells were incubated with test compounds in serial compound dilutions in the presence of 0.01% DMSO at 37 °C. After 48 h, Alamar Blue was added, and after 4 h the fluorescence was read (λex = 544 nm, λem = 590 nm) using a microplate reader. THP-1 cells in wells containing medium plus 0.01% DMSO served as negative controls. Experiments were performed in triplicate and were repeated as a whole at least twice.

[2] = Plasmodium falciparum, NF54, 48 h, read-out: IC50 [µM], concentration for 50% inhibition of P. falciparum (NF54-luc strain) erythrocytic stages
[3] = Plasmodium falciparum, NF54, 48 h
[4] = Plasmodium falciparum, NF54, read-out: IC50 P. falciparum (quoted in the discussion)
[5] = Plasmodium falciparum, NF54, read-out: IC50, Pf [µM]

SMILES	IC50 [1, 2] [µM]	inhibition at 3 µM [1, 3] [%]	also measured
O=c1c(-c2c[nH]c3ccccc23)c(-c2c[nH]c3ccccc23)c1=O [2a, 3,4-Bis(1H-indol-3-yl)cyclobut-3-ene-1,2-dione]	8.33	–	–
COc1ccc2[nH]cc(-c3c(-c4c[nH]c5ccc(F)cc45)c(=O)c3=O)c2c1 [2ab, 3-(5-Fluoro-1H-indol-3-yl)-4-(5-methoxy-1H-indol-3-yl)cyclobut-3-ene-1,2-dione]	–	19.2 ± 3.1	–
COc1ccc2[nH]cc(-c3c(-c4c[nH]c5ccc(Cl)cc45)c(=O)c3=O)c2c1 [2ac, 3-(5-Chloro-1H-indol-3-yl)-4-(5-methoxy-1H-indol-3-yl)cyclobut-3-ene-1,2-dione]	1.52	–	–
COc1ccc2[nH]cc(-c3c(-c4cn(C)c5ccc(Br)cc45)c(=O)c3=O)c2c1 [2ag, 3-(5-Bromo-1-methyl-1H-indol-3-yl)-4-(5-methoxy-1H-indol-3-yl)cyclobut-3-ene-1,2-dione]	–	-0.06 ± 2.43	IC50 [1, 4]: > 10 µM
COc1ccc2[nH]cc(-c3c(-c4c[nH]c5ccc(C#N)cc45)c(=O)c3=O)c2c1 [2ah, 3-[2-(5-Methoxy-1H-indol-3-yl)-3,4-dioxocyclobut-1-en-1-yl]-1H-indole-5-carbonitrile]	6.92	–	–
COc1ccc2[nH]cc(-c3c(-c4c[nH]c5c(Cl)cccc45)c(=O)c3=O)c2c1 [2ai, 3-(7-Chloro-1H-indol-3-yl)-4-(5-methoxy-1H-indol-3-yl)cyclobut-3-ene-1,2-dione]	0.691	84.5 ± 1	Selectivity Index (SI) = IC50, THP-1/IC50, Pf (human THP-1 cell line): 259; IC50 (human THP-1 cell line): 179000 nM; IC50 [1, 5]: 0.69 µM
COc1ccc2[nH]cc(-c3c(-c4c[nH]c5c(Br)cccc45)c(=O)c3=O)c2c1 [2aj, 3-(7-Bromo-1H-indol-3-yl)-4-(5-methoxy-1H-indol-3-yl)cyclobut-3-ene-1,2-dione]	0.296	99.5 ± 0.4	Selectivity Index (SI) = IC50, THP-1/IC50, Pf (human THP-1 cell line): 4.7; IC50 (human THP-1 cell line): 1420 nM; IC50 [1, 5]: 0.3 µM
COc1ccc2[nH]cc(-c3c(-c4c[nH]c5c(I)cccc45)c(=O)c3=O)c2c1 [2ak, 3-(7-Iodo-1H-indol-3-yl)-4-(5-methoxy-1H-indol-3-yl)cyclobut-3-ene-1,2-dione]	0.116	98.8 ± 1.2	Selectivity Index (SI) = IC50, THP-1/IC50, Pf (human THP-1 cell line): 7.0; IC50 (human THP-1 cell line): 840 nM; IC50 [1, 5]: 0.12 µM
CCc1cccc2c(-c3c(-c4c[nH]c5ccc(OC)cc45)c(=O)c3=O)c[nH]c12 [2al, 3-(7-Ethyl-1H-indol-3-yl)-4-(5-methoxy-1H-indol-3-yl)cyclobut-3-ene-1,2-dione]	0.511	87 ± 0.5	Selectivity Index (SI) = IC50, THP-1/IC50, Pf (human THP-1 cell line): 1.4; IC50 (human THP-1 cell line): 700 nM; IC50 [1, 5]: 0.51 µM
COc1ccc2[nH]cc(-c3c(-c4c[nH]c5cc(Br)ccc45)c(=O)c3=O)c2c1 [2am, 3-(6-Bromo-1H-indol-3-yl)-4-(5-methoxy-1H-indol-3-yl)cyclobut-3-ene-1,2-dione]	–	9.55 ± 5.8	–
COc1ccc2[nH]cc(-c3c(-c4c[nH]c5cccc(Br)c45)c(=O)c3=O)c2c1 [2an, 3-(4-Bromo-1H-indol-3-yl)-4-(5-methoxy-1H-indol-3-yl)cyclobut-3-en-1,2-dione]	–	25.7 ± 2.7	–
COc1ccc2c(c1)c(-c1c(-c3c[nH]c4ccc(Br)cc34)c(=O)c1=O)cn2C [2ao, 3-(5-Bromo-1H-indol-3-yl)-4-(5-methoxy-1-methyl-1H-indol-3-yl)cyclobut-3-en-1,2-dione]	0.504	95.4 ± 1.1	Selectivity Index (SI) = IC50, THP-1/IC50, Pf (human THP-1 cell line): 6.3; IC50 (human THP-1 cell line): 3130 nM; IC50 [1, 5]: 0.5 µM; IC50 [1, 4]: 0.54 µM
O=c1c(-c2c[nH]c3ccc(O)cc23)c(-c2c[nH]c3ccc(Br)cc23)c1=O [2ap, 3-(5-Bromo-1H-indol-3-yl)-4-(5-hydroxy-1H-indol-3-yl)cyclobut-3-ene-1,2-dione]	–	2.52 ± 1.4	–
O=c1c(-c2c[nH]c3ccc(I)cc23)c(-c2c[nH]c3ccc(I)cc23)c1=O [2aq, 3,4-Bis(5-iodo-1H-indol-3-yl)cyclobut-3-ene-1,2-dione]	–	1.79 ± 1.8	–
O=c1c(-c2c[nH]c3ccccc23)c(-c2c[nH]c3ccc(Br)cc23)c1=O [2b, 3-(5-Bromo-1H-indol-3-yl)-4-(1H-indol-3-yl)cyclobut-3-ene-1,2-dione]	3.02	–	Selectivity Index (SI) = IC50, THP-1/IC50, Pf (human THP-1 cell line): 7.6; IC50 (human THP-1 cell line): 23000 nM; IC50 [1, 5]: 3.02 µM; IC50 [1, 4]: 3 µM
O=c1c(-c2c[nH]c3ccccc23)c(-c2c[nH]c3ccc(Cl)cc23)c1=O [2c, 3-(5-Chloro-1H-indol-3-yl)-4-(1H-indol-3-yl)cyclobut-3-ene-1,2-dione]	4.23	–	–

SMILES	IC50 [1, 2] [µM]	inhibition at 3 µM [1, 3] [%]	also measured
O=c1c(-c2c[nH]c3ccccc23)c(-c2c[nH]c3ccc(OCc4ccccc4)cc23)c1=O [2e, 3-[5-(Benzyloxy)-1H-indol-3-yl]-4-(1H-indol-3-yl)cyclobut-3-ene-1,2-dione]	–	-4.43 ± 10.6	–
N#Cc1ccc2[nH]cc(-c3c(-c4c[nH]c5ccccc45)c(=O)c3=O)c2c1 [2f, 3-[2-(1H-Indol-3-yl)-3,4-dioxocyclobut-1-ene-1-yl]-1H-indol-5-carbonitrile]	6.72	–	–
Cc1[nH]c2ccccc2c1-c1c(-c2c[nH]c3ccccc23)c(=O)c1=O [2g, 3-(1H-Indol-3-yl)-4-(2-methyl-1H-indol-3-yl)cyclobut-3-ene-1,2-dione]	> 30	–	–
O=c1c(-c2c[nH]c3ccccc23)c(-c2c(-c3ccccc3)[nH]c3ccccc23)c1=O [2h, 3-(1H-Indol-3-yl)-4-(2-phenyl-1H-indol-3-yl)cyclobut-3-ene-1,2-dione]	6.38	–	Selectivity Index (SI) = IC50, THP-1/IC50, Pf (human THP-1 cell line): 1.0; IC50 (human THP-1 cell line): 6370 nM; IC50 [1, 5]: 6.38 µM
Cn1cc(-c2c(-c3cn(C)c4ccccc34)c(=O)c2=O)c2ccccc21 [2i, 3,4-Bis(1-methyl-1H-indol-3-yl)cyclobut-3-ene-1,2-dione]	–	3.53 ± 1.7	–
O=c1c(-c2c(-c3ccccc3)[nH]c3ccccc23)c(-c2c(-c3ccccc3)[nH]c3ccccc23)c1=O [2m, 3,4-Bis(2-phenyl-1H-indol-3-yl)cyclobut-3-ene-1,2-dione]	2.47	–	–
O=c1c(-c2c[nH]c3ccc(Br)cc23)c(-c2c[nH]c3ccc(Br)cc23)c1=O [2o, 3,4-Bis(5-bromo-1H-indol-3-yl)cyclobut-3-ene-1,2-dione]	> 30	–	–
N#Cc1ccc2[nH]cc(-c3c(-c4c[nH]c5ccc(C#N)cc45)c(=O)c3=O)c2c1 [2p, 3,3’-(3,4-Dioxocyclobut-1-ene-1,2-diyl)bis(1H-indole-5-carbonitrile)]	–	-3.1 ± 0.9	–
Cn1cc(-c2c(-c3c[nH]c4ccccc34)c(=O)c2=O)c2ccccc21 [2q, 3-(1H-Indol-3-yl)-4-(1-methyl-1H-indol-3-yl)cyclobut-3-ene-1,2-dione]	2.97	–	Selectivity Index (SI) = IC50, THP-1/IC50, Pf (human THP-1 cell line): 4.7; IC50 (human THP-1 cell line): 14000 nM; IC50 [1, 5]: 2.97 µM
Cn1cc(-c2c(-c3c[nH]c4ccc(Br)cc34)c(=O)c2=O)c2ccccc21 [2t, 3-(5-Bromo-1H-indol-3-yl)-4-(1-methyl-1H-indol-3-yl)cyclobut-3-ene-1,2-dione]	–	1.38 ± 3.3	–
COc1ccc2[nH]cc(-c3c(-c4c(C)[nH]c5ccccc45)c(=O)c3=O)c2c1 [2v, 3-(5-Methoxy-1H-indol-3-yl)-4-(2-methyl-1H-indol-3-yl)cyclobut-3-ene-1,2-dione]	10	–	–
Cc1[nH]c2ccccc2c1-c1c(-c2c(-c3ccccc3)[nH]c3ccccc23)c(=O)c1=O [2w, 3-(2-Methyl-1H-indol-3-yl)-4-(2-phenyl-1H-indol-3-yl)cyclobut-3-ene-1,2-dione]	9.26	–	–
Cc1[nH]c2ccccc2c1-c1c(-c2c[nH]c3ccc(Br)cc23)c(=O)c1=O [2x, 3-(5-Bromo-1H-indol-3-yl)-4-(2-methyl-1H-indol-3-yl)cyclobut-3-ene-1,2-dione]	> 30	–	–
CN(CC[C@H](N)CC(=O)N[C@H]1C=C[C@H](n2ccc(N)nc2=O)O[C@@H]1C(=O)O)C(=N)N [BSD, Blasticidin, reference compound]	–	–	Inhibition at 3 µM [%] ([1]; 3 µM test compound, 48 h, P. falciparum NF54-luc erythrocytic stages): 97.6 ± 0.5%; IC50 ([1]; Table 1, 48 h incubation, luminescence viability readout, read-out: IC50 [µM], concentration for 50% inhibition of P. falciparum (NF54-luc strain) erythrocytic stages): 0.288 µM
CN1C(=O)C(c2c[nH]c3ccccc23)=C(c2c[nH]c3ccccc23)C1=O [compound 8, reference compound]	4	34.6 ± 0.8	–
